Article PMC9886550, “Molecular mechanism of topoisomerase poisoning by the peptide antibiotic albicidin” (Nature Catalysis, 2023)

Columns and labels:
Assay type in all cases: biochemical
[1] = target: T1, E. coli gyrase GyrA^D72N (Escherichia coli, UniProt P0AES4+P0AES6); settings: in words
T1 construct: alternative cryo-EM approach involving full-length E. coli gyrase; 10-His (cleaved yes); Twin-Strep (cleaved yes); made in house
Method: (§1) For DNA gyrase supercoiling assays to characterize gyrase mutants, 15 µl reactions were set up containing 250 ng of relaxed DNA, E. coli gyrase supercoiling buffer (35 mM Tris–Cl pH 7.5, 24 mM KCl, 4 mM MgCl2, 2 mM DTT, 1.8 mM spermidine, 1 mM ATP, 6.0% (w/v) glycerol, and 0.1 mg ml^−1 BSA), gyrase subunits and inhibitors. Concentrations of enzyme and inhibitor are stated in the figure legends. Inhibitors were diluted in the following way to reduce the chance of precipitation: stock compound in 100% DMSO was diluted to 5 mM in 100% DMSO. This compound solution was diluted to 1 mM by stepwise addition of 1 µl of 50% DMSO with thorough mixing via pipetting after each addition. All subsequent dilutions up to 100 µM were performed in the same way using H2O. After this point, compounds were stable and could be diluted in the normal way. Reactions were incubated at 37 °C for 30 min before stopping with 15 µl chloroform:isoamyl alcohol (24:1 v/v) and 15 µl of STEB (40% (w/v) sucrose, 100 mM Tris–Cl pH 8, 10 mM EDTA, 0.5 mg ml^−1 bromophenol blue).
Cleavage assays were set up in the same way as supercoiling assays with some modifications. The concentration of enzyme was increased 4-fold relative to the supercoiling assay and reactions were incubated for 1 h before addition of 0.2% SDS and proteinase K (0.2 mg ml^−1) and further incubation at 37 °C for 30 min to trap cleavage complexes. […]

[2] = target: T2, E. coli gyrase GyrA^I74M (Escherichia coli, UniProt P0AES4+P0AES6, I74M); assay: DNA gyrase cleavage assay (CC50, % cleaved DNA); settings: for % maximal cleavage: GyrAI74M, average of 3 independent assays; for EC50: GyrA^I74M, mean ± s.d. of triplicate; for % cleaved DNA Average: average of replicates
T2 construct: alternative cryo-EM approach involving full-length E. coli gyrase; 10-His (cleaved yes); Twin-Strep (cleaved yes); made in house
Method: as §1
Cleavage assays were set up in the same way as supercoiling assays with some modifications. The concentration of enzyme was increased 4-fold relative to the supercoiling assay and reactions were incubated for 1 h before addition of 0.2% SDS and proteinase K (0.2 mg ml^−1) and further incubation at 37 °C for 30 min to trap cleavage complexes. Reactions were stopped in the same way as supercoiling assays.
Results were visualized by agarose gel electrophoresis: 1% agarose Tris-acetate-EDTA (TAE) gels were run without ethidium bromide (supercoiling) or with 10 µg ml^−1 ethidium bromide (cleavage) at 8 V cm^−1.
DNA cleavage gels were analysed using densitometry (ImageJ). Experiments were carried out in triplicate and expressed as mean ± s.d. Curves were fitted using OriginPro 2021 (Origin Lab) according to a modified Hill equation:1 y=cI+(cF−cI)[…]/(k^n+x^n) where y is the percentage of cleaved DNA, cI is the initial cleavage, cF is the final cleavage, k is the CC50 (the concentration of inhibitor that results in cleavage of 50% of DNA), n is a slope factor and x is the inhibitor concentration.

[3] = target: T3, E. coli gyrase (Escherichia coli, UniProt P0AES4+P0AES6); assay: Gyrase cleavage of linear DNA fragments (Mu217 and others); settings: 1 µM albicidin
T3 construct: alternative cryo-EM approach involving full-length E. coli gyrase; 10-His (cleaved yes); Twin-Strep (cleaved yes); made in house
Method: Mu217 DNA (25 nM) was incubated with 0.4 µM gyrase and indicated concentrations (1 or 10 µM) of diazirine-labelled albicidin (photo-Albi, φAlbi) in a volume of 20 µl (~70 ng DNA) at 37 °C for 30 min in gyrase cleavage buffer (see section 'Topoisomerase assays'). For CFX competition experiments, 30 µM CFX was added first, followed by the albicidin. Reactions were either irradiated with ultraviolet 365 nm (benchtop transilluminator) with cooling (ice) for 30 min or left on ice for 30 min (‘dark’). Then, 0.2% SDS and 0.2 mg ml^−1 proteinase K were added to both samples, which were incubated for another 30 min. Reactions were mixed with loading dye (STEB) and chloroform:isoamyl alcohol (24:1 v/v) before vortexing and centrifugation. The aqueous phase was loaded on 4–20% TBE (Tris–borate–EDTA) polyacrylamide gel (Thermo) and ran for 1 h at 150 V. DNA was visualized with SYBR Gold (Thermo) staining.
Extended Data Fig. 1 Length dependency of albicidin-mediated DNA cleavage. Position of cleaved DNA indicated by arrows and red dots. ATP and ADPNP were added as indicated, (----) stands for no nucleotide added. 20 nM gyrase, 1 µM albicidin and 25 nM DNA was used in each reaction.
Extended Data Fig. 5 Photocrosslinking of diazirine-labelled albicidin (photo-Albi) to the DNA. a. Structures of N-terminal photo-Albi and control compound. b. DNA cleavage assay with Mu217 fragment and indicated concentrations of compounds. The labelled DNA band appearing upon irradiation of a photo-compound when bound to the complex is marked by a yellow star. c. Ciprofloxacin competition experiment. Pre-incubation with excess CFX prevents albicidin binding and crosslinking. Details of the experiment are available in Methods section.

| Compound | resistance of the variant judged by the CC50 [1] | % maximal cleavage [2] | EC50 [2] | reduction in the maximal amount of cleavage ([2]; GyrA^I74M vs WT gyrase) | % cleaved DNA Average ([2]; albicidin 0.0025 µM) | % cleaved DNA Average ([2]; albicidin 0.005 µM) | % cleaved DNA Average ([2]; albicidin 0.01 µM) | % cleaved DNA Average ([2]; albicidin 0.025 µM) | % cleaved DNA Average ([2]; albicidin 0.05 µM) | % cleaved DNA Average ([2]; albicidin 0.1 µM) | % cleaved DNA Average ([2]; albicidin 0.25 µM) | % cleaved DNA Average ([2]; albicidin 0.5 µM) | % cleaved DNA Average ([2]; albicidin 1 µM) | cleavage of DNA fragments ([3]; fragments shorter than 150 bp or absence of a nucleotide) | cleavage of the 217 bp Mu SGS fragment (Mu217) ([3]; in the presence of ATP or ADPNP) |
| --- | --- | --- | --- | --- | --- | --- | --- | --- | --- | --- | --- | --- | --- | --- | --- |
| CC(C)Oc1c(NC(=O)c2ccc(NC(=O)[C@H](Cc3c[nH]nn3)NC(=O)c3ccc(NC(=O)c4ccc(C#N)cc4)cn3)cn2)ccc(C(=O)Nc2ccc(C(=O)O)cc2)c1O [Albi-1] | did not show increased resistance | 79±5% | 0.03 ± 0.0027 µM |  |  |  |  |  |  |  |  |  |  |  |  |
| COc1c(NC(=O)c2ccc(NC(=O)c3ccc(NC(=O)[C@H](CC#N)NC(=O)c4ccc(NC(=O)/C(C)=C/c5ccc(O)cc5)cc4)cc3)c(OC)c2O)ccc(C(=O)O)c1O [Albicidin] | did not show increased resistance | 40±10% | 0.042 ± 0.0077 µM | ~ 2 fold | 2.868% | 1.835% | 6.013% | 10.9112% | 19.5143% | 32.1987% | 36.304% | 39.8221% | 36.4081% | almost no cleavage | strong cleavage |
